Laboratory results: patent publication US12396459B2, “Synergistically effective herbicide composition comprising pyridate and at least one defined 4-HPPD inhibitor” (BELCHIM CROP PROTECTION NV, priority 2018, dated 2025)

Experiments:
Type in all cases: in vivo
Brassica napus = assay: Field trial post-emergence in maize: BRSNN; conditions: # = 1, g a.c./ha: PYR 300, MES 100, PYR + MES 300 + 90
Method: (§1) Herbicidal activity of herbicide compositions according to the first aspect of the present invention with regard to different types of unwanted vegetation was determined during trials performed on test fields (field trials). Individual compositions comprising pyridate and individual compositions comprising a defined 4-HPPD inhibitor are compared with a herbicide composition according to the invention comprising both pyridate and a defined 4-HPPD inhibitor. The expected activity of the combination of the active compounds pyridate and a defined 4-HPPD inhibitor is calculated according to above mentioned calculation method by Colby, in order to evaluate a synergistic effect between pyridate and a defined 4-HPPD inhibitor.
(§2) Herbicidal activity was determined by applying herbicide compositions on emerged unwanted vegetation on fields where maize was cultivated. Pyridate and a defined 4-HPPD inhibitor were applied as a tank mixture by mixing these active compounds prior to use in a spray tank. The corresponding mixture was in the form of a spray liquor. Besides, spray liquors of individual compositions comprising pyridate and of individual compositions comprising a defined 4-HPPD inhibitor were used. Test plants of unwanted vegetation with a growth stage corresponding to BBCH 10-18 (according to the extended BBCH-scale) were sprayed with the active compound preparations such that particular desired amounts of active compounds are applied per unit area. Spray liquor was diluted with water to arrive at an application volume of 50 to 450 L/ha. At a specified number of days after application (DAA), the degree of damage to the unwanted vegetation is rated in % of plants of unwanted vegetation that were killed, which was assessed by visually controlling the plants.

Setaria viridis = assay: Field trial post-emergence in maize: SETVI
Method: as §1, §2
(§3) Example 1 concerns a herbicide composition comprising a combination of pyridate and mesotrione, which was applied post-emergence on unwanted vegetation on a field where maize was cultivated, according to the test conditions mentioned above.

Fallopia convolvulus = assay: Field trial post-emergence in maize: POLCO
Method: as §1, §2

Matricaria chamomilla [1] = assay: Field trial post-emergence in maize: MATCH
Method: as §1, §2, §3

[2] = system: Tripleurospermum inodorum; assay: Field trial post-emergence in maize: MATIN; conditions: for herbicidal effect (h.e.): # = 1, g a.c./ha: PYR 300, MES 100, PYR + MES 300 + 90
Method: as §1, §2

Cirsium arvense = assay: Field trial post-emergence in maize: CIRAR; conditions: # = 1, g a.c./ha: PYR 300, MES 100, PYR + MES 300 + 90
Method: as §1, §2

Stellaria media = assay: Field trial post-emergence in maize: STEME
Method: as §1, §2

Datura stramonium = assay: Field trial post-emergence in maize: DATST; conditions: 7-14 DAA; # = 2; g a.c./ha: PYR 300, MES 100, PYR + MES 300 + 90
Method: as §1
(§4) Herbicidal activity was determined by applying herbicide compositions on emerged unwanted vegetation on fields where maize was cultivated. Pyridate and a defined 4-HPPD inhibitor were applied as a tank mixture by mixing these active compounds prior to use in a spray tank. The corresponding mixture was in the form of a spray liquor. […] At a specified number of days after application (DAA), the degree of damage to the unwanted vegetation is rated in % of plants of unwanted vegetation that were killed, which was assessed by visually controlling the plants.

Solanum nigrum = assay: Examples 6-8 herbicidal effect: SOLNI; conditions: 7 DAA
Matricaria chamomilla [3] = assay: Examples 6-8 herbicidal effect: MATCH; conditions: 7 DAA
Polygonum aviculare = assay: Field trial post-emergence in maize: POLAV
Method: as §1, §2, §3

Brassica napus (winter) = assay: Field trial post-emergence in maize: BRSNW; conditions: # = 1, g a.c./ha: PYR 300, MES 100, PYR + MES 300 + 90
Method: as §1, §2

[4] = system: unwanted vegetation (UVEG); assay: Field trials Examples 1-5 (incl. Table 1), post-emergence on unwanted vegetation in maize; conditions: 14-20 DAA
Method: as §1, §2

Galinsoga parviflora = assay: Field trial post-emergence in maize: GASPA; conditions: 31-48 DAA; # = 3; g a.c./ha: PYR 300, MES 100, PYR + MES 300 + 90
Method: as §1, §4

Setaria verticillata = assay: Examples 6-8 herbicidal effect: SETVE; conditions: 7 DAA
Geranium dissectum = assay: Examples 6-8 herbicidal effect: GERDI; conditions: 7 DAA
Veronica persica = assay: Examples 6-8 herbicidal effect: VERPE; conditions: 7 DAA
Geranium sp. = assay: Field trial post-emergence in maize: GERSS; conditions: # = 1, g a.c./ha: PYR 300, MES 100, PYR + MES 300 + 90
Method: as §1, §2

[5] = g a.c./ha: MES 50, PYR + SMO 300 + 800
[6] = g a.c./ha: MES 80, PYR + MES 300 + 50

## CS(=O)(=O)c1ccc(C(=O)C2C(=O)CCCC2=O)c([N+](=O)[O-])c1 [MES, 2-(4-methylsulfonyl-2-nitrobenzoyl) cyclohexane-1,3-dione]
Brassica napus; 7-14 DAA
  herbicidal effect (h.e.): 86%
Brassica napus; 18-28 DAA
  herbicidal effect (h.e.): 85%
Brassica napus; 31-48 DAA
  herbicidal effect (h.e.): 84%
Setaria viridis; SETVI 14-20 DAA 45 g a.c./ha
  MES h.e.: 83%
Setaria viridis; SETVI 14-20 DAA 90 g a.c./ha
  MES h.e.: 92%
Setaria viridis; SETVI 14-20 DAA 135 g a.c./ha
  MES h.e.: 95%
Setaria viridis; SETVI 24-31 DAA 45 g a.c./ha
  MES h.e.: 72%
Setaria viridis; SETVI 24-31 DAA 90 g a.c./ha
  MES h.e.: 92%
Setaria viridis; SETVI 24-31 DAA 135 g a.c./ha
  MES h.e.: 95%
Fallopia convolvulus; 7-14 DAA, # = 5, g a.c./ha: PYR 300, MES 100, PYR + MES 300 + 90
  herbicidal effect (h.e.): 68%
Fallopia convolvulus; 13-14 DAA, # = 1, g a.c./ha: PYR 450, MES 144, PYR + MES 450 + 144
  herbicidal effect (h.e.): 92%
Fallopia convolvulus; 18-28 DAA, # = 8, g a.c./ha: PYR 300, MES 100, PYR + MES 300 + 90
  herbicidal effect (h.e.): 77%
Fallopia convolvulus; 31-48 DAA, # = 8, g a.c./ha: PYR 300, MES 100, PYR + MES 300 + 90
  herbicidal effect (h.e.): 68%
Fallopia convolvulus; POLCO 14-20 DAA 45 g a.c./ha
  MES h.e.: 77%
Fallopia convolvulus; POLCO 14-20 DAA 90 g a.c./ha
  MES h.e.: 89%
Fallopia convolvulus; POLCO 24-31 DAA 45 g a.c./ha
  MES h.e.: 80%
Fallopia convolvulus; POLCO 24-31 DAA 135 g a.c./ha
  MES h.e.: 97%
Matricaria chamomilla [1]; MATCH 14-20 DAA 45 g a.c./ha
  MES h.e.: 53%
Matricaria chamomilla [1]; MATCH 14-20 DAA 90 g a.c./ha
  MES h.e.: 72%
Matricaria chamomilla [1]; MATCH 14-20 DAA 135 g a.c./ha
  MES h.e.: 81%
Matricaria chamomilla [1]; MATCH 24-31 DAA 45 g a.c./ha
  MES h.e.: 43%
Matricaria chamomilla [1]; MATCH 24-31 DAA 90 g a.c./ha
  MES h.e.: 77%
Matricaria chamomilla [1]; MATCH 24-31 DAA 135 g a.c./ha
  MES h.e.: 93%
[2]; 7-14 DAA
  herbicidal effect (h.e.): 77%
[2]; 18-28 DAA
  herbicidal effect (h.e.): 78%
[2]; 31-48 DAA
  herbicidal effect (h.e.): 80%
[2]; MATIN 24-31 DAA 45 g a.c./ha
  MES h.e.: 80%
Cirsium arvense; 7-14 DAA
  herbicidal effect (h.e.): 58%
Cirsium arvense; 31-48 DAA
  herbicidal effect (h.e.): 78%
Stellaria media; 18-28 DAA, # = 4, g a.c./ha: PYR 300, MES 100, PYR + MES 300 + 90
  herbicidal effect (h.e.): 98%
Stellaria media; STEME 14-20 DAA 45 g a.c./ha
  MES h.e.: 78%
Stellaria media; STEME 14-20 DAA 90 g a.c./ha
  MES h.e.: 93%
Stellaria media; STEME 14-20 DAA 135 g a.c./ha
  MES h.e.: 93%
Stellaria media; STEME 24-31 DAA 45 g a.c./ha
  MES h.e.: 70%
Stellaria media; STEME 24-31 DAA 90 g a.c./ha
  MES h.e.: 87%
Stellaria media; STEME 24-31 DAA 135 g a.c./ha
  MES h.e.: 93%
Datura stramonium
  herbicidal effect (h.e.): 98%
Solanum nigrum; [5]
  herbicidal effect (h.e.): 67%
Solanum nigrum; [6]
  herbicidal effect (h.e.): 54%
Matricaria chamomilla [3]; [5]
  herbicidal effect (h.e.): 25%
Matricaria chamomilla [3]; [6]
  herbicidal effect (h.e.): 53%
Polygonum aviculare; POLAV 14-20 DAA 45 g a.c./ha
  MES h.e.: 61%
Polygonum aviculare; POLAV 14-20 DAA 90 g a.c./ha
  MES h.e.: 76%
Polygonum aviculare; POLAV 24-31 DAA 90 g a.c./ha
  MES h.e.: 58%
Brassica napus (winter); 7-14 DAA
  herbicidal effect (h.e.): 98%
Brassica napus (winter); 18-28 DAA
  herbicidal effect (h.e.): 99%
[4]; VIOAR (Viola arvensis), # = 3, first VIOAR block (r259-264), MES 135 g a.c./ha
  MES h.e. (%): 98%
[4]; VIOAR, # = 3, second VIOAR block (r265-272), MES 45 g a.c./ha
  MES h.e. (%): 70%
[4]; VIOAR, # = 3, second VIOAR block (r265-272), MES 90 g a.c./ha
  MES h.e. (%): 84%
[4]; VIOAR, # = 3, second VIOAR block (r265-272), MES 135 g a.c./ha
  MES h.e. (%): 87%
Galinsoga parviflora
  herbicidal effect (h.e.): 97%
Setaria verticillata; [5]
  herbicidal effect (h.e.): 0%
Setaria verticillata; [6]
  herbicidal effect (h.e.): 3%
Geranium dissectum; [5]
  herbicidal effect (h.e.): 15%
Geranium dissectum; [6]
  herbicidal effect (h.e.): 15%
Veronica persica; [5]
  herbicidal effect (h.e.): 33%
Veronica persica; [6]
  herbicidal effect (h.e.): 57%
Geranium sp.; 7-14 DAA
  herbicidal effect (h.e.): 44%
Geranium sp.; 18-28 DAA
  herbicidal effect (h.e.): 41%
Geranium sp.; 31-48 DAA
  herbicidal effect (h.e.): 31%
